In US12023336B2, “Antiviral drug compounds and composition thereof” (priority 2018, dated 2024):
Where a name gives a salt, the structure may show the parent alone. Read-outs that look alike come from different tables or passages of the source.

Tested on: HIV-1NL4.3
Test: microbe, parasite or virus in culture
Format: cell-based
Conditions: for inhibition at 10 µM: read-out: % Inhibition at 10 μM Concentration
Protocol: TZM-bl cells were seeded at the density of 12,000-15,000 cells/well of 96 well plate with 100 μL DMEM (with 10% FBS) in each well. 12-hours post seeding, the media was replaced with fresh DMEM containing HTV-1NL4.3 at 0.1 MOI and cells were treated with different molecules independently at 10 μM working concentration. Cells were incubated in humidified CO2 incubator for 4-hours. After incubation, the media was replaced and cells were washed twice with incomplete DMEM and 100 μL of complete DMEM was added in each wells along with the molecules of interest and incubated at 37° C. in humidified CO2 incubator. 48-hours post incubation, the media was removed and cells were washed twice with 100 μL of 1×PBS. After washing, cells were lysed using cell culture lysis reagent and Steady-Glo substrate was added at 1:1 ration in each well. Luminescence was measured using Molecular Devices M5 (Table 2). % Inhibition was calculated using following formula and plotted.
[formula] (RLU=Relative Luminescence Unit)

[1] = Human immunodeficiency virus 1, TZM-bl, 48 h
[2] = Human immunodeficiency virus 1, 10 μM, HIV-1NL4.3 0.1 MOI, TZM-bl cells, luminescence 48 h
[3] = 10 μM, HIV-1NL4.3 0.1 MOI, TZM-bl cells, luminescence 48 h

| Structure (SMILES) | inhibition at 10 µM [2] [%] | % Inhibition at 10 μM Concentration [3] [%] | other results |
| --- | --- | --- | --- |
| O=C1c2ccccc2C(=O)c2c(NCCc3ccc(O)cc3)ccc(NCCc3ccc(O)cc3)c21 [1,4-Bis[(p-hydroxyphenethyl)amino]-anthraquinone] |  |  | inhibition at 10 µM [1]: 98.9% |
| Cc1ccc(-c2cc(C(F)(F)F)nn2-c2ccc(S(N)(=O)=O)cc2)cc1 [Celecoxib] | 95.1 |  |  |
| CC(C)NC[C@H](O)COc1cccc2ccccc12.Cl [(S)-Propranolol hydrochloride] |  | 99.30 |  |
| CC(C)(C)c1ccc(C(O)CCCN2CCC(C(O)(c3ccccc3)c3ccccc3)CC2)cc1 (stereo not drawn) [Terfenadine] | 98.7 |  |  |
| O=C1Cc2c([nH]c3ccc(Br)cc23)-c2ccccc2N1 [Kenpaullone] | 98.7 |  |  |
| CS(=O)(=O)c1cccc(CNc2nc(Nc3ccc4c(c3)CCC(=O)N4)ncc2C(F)(F)F)c1 [PF-573228] |  | 97.23 |  |
| O=C(O)/C=C\C(=O)O.O=C1/C(=C/c2ccccc2)C[C@@]2(O)[C@H]3Cc4ccc(O)c5c4[C@@]2(CCN3CC2CC2)[C@H]1O5 [BNTX maleate salt hydrate] |  | 99.26 |  |
| N=C(N)N/N=C/c1c(Cl)cccc1Cl [Guanabenz acetate] | 99.6 |  |  |
| CCCCc1ncc(/C=C(\Cc2cccs2)C(=O)O)n1Cc1ccc(C(=O)O)cc1 [Eprosartan mesylate] | 99.8 |  |  |
| CC(C)[C@H]1c2ccc(F)cc2CC[C@@]1(CCN(C)CCCc1nc2ccccc2[nH]1)OC(=O)C1CC1 [NNC 55-0396] |  | 97.75 |  |
| CC(=O)O[C@]1(C(C)=O)CC[C@H]2[C@@H]3C=C(Cl)C4=CC(=O)[C@@H]5C[C@@H]5[C@]4(C)[C@H]3CC[C@@]21C [Cyproterone acetate] | 98.5 |  |  |
| COc1cc2nc(N3CCN(C(=O)C4COc5ccccc5O4)CC3)nc(N)c2cc1OC (stereo not drawn) [Doxazosin mesylate] | 100 |  |  |
| CC(C)NC[C@@H](O)c1ccc(O)c(O)c1.O=C(O)C(O)C(O)C(=O)O [S(+)-Isoproterenol (+)-bitartrate] |  | 97.10 |  |
| NC(Cc1cc(O)c(O)cc1O)C(=O)O (racemic) [6-Hydroxy-DL-DOPA] |  | 96.67 |  |
| N[C@@H](Cn1oc(=O)[nH]c1=O)C(=O)O [(+)-Quisqualic acid] |  | 99.30 |  |
| CCOC(=O)c1ncn2c1[C@@H]1CCCN1C(=O)c1cc(OC)ccc1-2 [L-655,708] |  | 97.43 |  |
| CC[C@@]1(O)C(=O)OCc2c1cc1n(c2=O)Cc2cc3c(CN(C)C)c(O)ccc3nc2-1 [Topotecan hydrochloride hydrate] | 98.1 |  |  |
| CC1=NN=C(c2ccc(N)cc2)c2cc3c(cc2C1)OCO3 [GYKI 52466 hydrochloride] | 99.3 |  |  |
| CCCCN(CC)c1nc(C)nc2c1c(C)cn2-c1c(C)cc(C)cc1C [CP-154526 hydrochloride] | 97.1 |  |  |
| CC[N+](CC)(CC)CCOc1ccc(/C=C/c2ccccc2)cc1 [MG 624] | 97.1 |  |  |
| O=C(Nc1cccc(C(=O)Nc2ccc(S(=O)(=O)O)c3cc(S(=O)(=O)O)cc(S(=O)(=O)O)c23)c1)Nc1cccc(C(=O)Nc2ccc(S(=O)(=O)O)c3cc(S(=O)(=O)O)cc(S(=O)(=O)O)c23)c1 [NF 023] |  | 95.77 |  |
| O=Nc1ccc2oc(=O)ccc2c1 [6-Nitroso-1,2-benzopyrone] |  | 99.15 |  |
| CCc1ccccc1OC[C@@H](O)CN[C@H]1CCCc2ccccc21.O=C(O)C(=O)O [SR 59230A oxalate] |  | 97.52 |  |
| CNCCC=C1c2ccccc2CCc2ccccc21 [Nortriptyline hydrochloride] | 99.2 |  |  |
| Cl.NCCCC(N)(C(=O)O)C(F)F (racemic) [DL-alpha-Difluoromethylornithine hydrochloride] |  | 97.06 |  |
| O=C(O)C1=CC(=C(c2ccc(O)c(C(=O)O)c2)c2ccc(O)c(C(=O)O)c2)C=CC1=O [Aurintricarboxylic acid] | 97.2 |  |  |

| Structure (SMILES) | inhibition at 10 µM [2] [%] | % Inhibition at 10 μM Concentration [3] [%] | other results |
| --- | --- | --- | --- |
| Oc1ccc(/C=C/c2ccc(/C=C/c3ccc(O)cc3)c(Br)c2)cc1 [K114] |  | 96.16 |  |
| CCCCNc1c(C(=O)OCC)c(C)nc2c1cnn2CC [Tracazolate] | 99.1 |  |  |
| OCCN1CCN(CCCN2c3ccccc3Sc3ccc(Cl)cc32)CC1 [Perphenazine] | 99.6 |  |  |
| Oc1c2ccccc2c2c3c(cccc13)N=N2 [SP600125] | 97.5 |  |  |
| CNCCNS(=O)(=O)c1cccc2cnccc12.Cl.Cl [H-8 dihydrochloride] |  | 99.57 |  |
| CN[C@@H]1C[C@@H](c2ccc(Cl)c(Cl)c2)c2ccccc21 [Indatraline hydrochloride] | 97.4 |  |  |
| Cc1cnc(C(=O)NCCc2ccc(S(=O)(=O)NC(=O)NC3CCCCC3)cc2)cn1 [Glipizide] | 98.5 |  |  |
| COc1ccccc1CNCCCCCCNCCCCCCCCNCCCCCCNCc1ccccc1OC [Methoctramine tetrahydrochloride] |  | 98.94 |  |
| CC(=O)OC[C@H]1O[C@@H]([S-])[C@H](OC(C)=O)[C@@H](OC(C)=O)[C@@H]1OC(C)=O.CCP(CC)CC.[Au+] [Auranofin] |  | 96.08 |  |
| CCN(CC)CCCC(C)Nc1c2ccc(Cl)cc2nc2ccc(OC)cc12 (stereo not drawn) [Quinacrine dihydrochloride] | 100 |  |  |
| COC(=O)C1=C(C)NC(C)=C(C(=O)OCCN(C)Cc2ccccc2)C1c1cccc([N+](=O)[O-])c1 (stereo not drawn) [Nicardipine hydrochloride] | 99.6 |  |  |
| Nc1ccc(-c2nc3ccc(-c4nc5ccc(N)cc5[nH]4)cc3[nH]2)cc1 [RO 90-7501] |  | 99.67 |  |
| CCN(CC)CCOc1ccc(Nc2ncc3cc(-c4c(Cl)cccc4Cl)c(=O)n(C)c3n2)cc1 [PD-166285 hydrate] | 97 |  |  |
| Cc1ccc(S(=O)(=O)N[C@@H](Cc2ccccc2)C(=O)CCl)cc1 [N-p-Tosyl-L-phenylalanine chloromethyl ketone] |  | 98.76 |  |
| N#CC(=C(/N)Sc1ccccc1N)/C(C#N)=C(\N)Sc1ccccc1N [U0126] |  |  | inhibition at 10 µM [1]: 97.4% |
| CCCN1CCC[C@@H](c2cccc(O)c2)C1.Cl [S(−)-3PPP hydrochloride] |  | 98.60 |  |
| CC1=C(/C=C/C(C)=C/C=C/C(C)=C/C(=O)Nc2ccc(O)cc2)C(C)(C)CCC1 [Retinoic acid p-hydroxyanilide] |  | 98.52 |  |
| O=c1oc(Cl)c(Cl)c2ccccc12 [Dichloroisocoumarin] |  | 97.06 |  |
| Nc1nc2c(ncn2CCOCP(=O)(O)O)c(=O)[nH]1 [PMEG hydrate] |  | 99.36 |  |
| COc1ccc(-c2cc3nccn3c(Nc3ncccc3C(N)=O)n2)cc1OC.Cl.O [BAY 61-3606 hydrochloride hydrate] |  | 95.05 |  |
| Cn1c(=O)c(-c2c(Cl)cccc2Cl)cc2cnc(Nc3ccc(N4CCOCC4)cc3)nc21 [PD173952] |  | 96.16 |  |
| CNCCCC12CCC(c3ccccc31)c1ccccc12 [Maprotiline hydrochloride] |  |  | inhibition at 10 µM [1]: 98.9% |
| NC(=O)CN1CC(O)CC1=O (stereo not drawn) [Oxiracetam] | 96.5 |  |  |
| O=C1c2c(O)ccc(O)c2C(=O)c2c(NCCNCCO)ccc(NCCNCCO)c21 [Mitoxantrone] | 97.1 |  |  |
| O=[N+]([O-])/C=C/c1ccc2c(c1)OCO2 [MNS] |  | 99.63 |  |
